Source: patent publication US20240252508A1, “Novel glucose uptake inhibitors for use in the treatment of cancer” (NOVELYEAST BV, priority 2021, published 2024)

How the values were obtained:
[1] = test system: wild type yeast cells; assay: General toxicity: growth of wild type yeast cells; type: cell-based, S. cerevisiae; details: 100 μM
Description: Maximal growth rates were determined after 2 days of growth in Complete Synthetic liquid medium.
Growth curves were made by measuring OD595 in a 96-well plate using the Multiskan™ FC Microplate Photometer (Thermo Fisher Scientific). Typically, for tps1Δ rescue experiments (FIG. 2b-e; FIG. 4a), cells were (pre)grown in Complete Synthetic medium containing 2% galactose.
Compounds were always added 10 min prior to glucose addition to ensure maximal interaction between the cells and compounds. Cells originating from the preculture were harvested, washed in medium without sugar, after which they were resuspended to an OD of 0.1 in 200 μL of the appropriate medium. At least three technical replicates were included per condition. OD595 was measured at 30° C. every 30 min with a 10-min shaking interval.

[2] = test system: A549 lung adenocarcinoma cells; assay: Steady-state glucose consumption and lactate production in A549 cells; type: cell-based, human; details: 25 μM, 1 mM glucose, 8 h
Description: The influence of WBC compounds on the steady-state glucose consumption rate was studied in the A549 adenocarcinoma and KMS-12-PE multiple myeloma cell lines. As such, different parameters needed to be optimized depending on whether cells were adherent or in suspension. As such, A549 cells were incubated at 125,000 cells/well in a 24-well plate in 300 μL RPMI medium for 8 h. For the KMS-12-PE cell line, 100,000 cells/well were incubated in 100 μL RPMI medium in a 96-well plate for 8 h. Medium was collected, spun down and HPLC-analyzed for measuring glucose and lactate levels. Metabolite levels were corrected for cell number, which always varied little over the span of 8 h. For every condition, at least 4 technical repeats were included.

**Q.** Which “Growth of wild type yeast cells on glucose (2%) and on 3% glycerol+2% ethanol” value [1] does the source give for `Cc1nc(Sc2nnc3n2CCCCC3)c2c(-c3cccs3)csc2n1` [WBC-A] here?
**A.** Its value is “did not cause any growth inhibition at all”.

**Q.** What about the “Glucose consumption and lactate production in A549 cells” value [2] of the same compound?
**A.** The value was “did not cause inhibition”.
